Test results: ChEMBL document CHEMBL3991601, “The target landscape of clinical kinase drugs” (Science, 2017)
The source made the active and inactive calls.

How the values were obtained:
[1] = biological target: Serine/threonine-protein kinase B-raf (Homo sapiens, UniProt P15056)
[2] = biological target: Cyclin-dependent kinase 4 (Homo sapiens, UniProt P11802)
Ephrin type-B receptor 3 = biological target: T1, Ephrin type-B receptor 3 (Homo sapiens, UniProt P54753)
T1 sequence (P54753 whole entry): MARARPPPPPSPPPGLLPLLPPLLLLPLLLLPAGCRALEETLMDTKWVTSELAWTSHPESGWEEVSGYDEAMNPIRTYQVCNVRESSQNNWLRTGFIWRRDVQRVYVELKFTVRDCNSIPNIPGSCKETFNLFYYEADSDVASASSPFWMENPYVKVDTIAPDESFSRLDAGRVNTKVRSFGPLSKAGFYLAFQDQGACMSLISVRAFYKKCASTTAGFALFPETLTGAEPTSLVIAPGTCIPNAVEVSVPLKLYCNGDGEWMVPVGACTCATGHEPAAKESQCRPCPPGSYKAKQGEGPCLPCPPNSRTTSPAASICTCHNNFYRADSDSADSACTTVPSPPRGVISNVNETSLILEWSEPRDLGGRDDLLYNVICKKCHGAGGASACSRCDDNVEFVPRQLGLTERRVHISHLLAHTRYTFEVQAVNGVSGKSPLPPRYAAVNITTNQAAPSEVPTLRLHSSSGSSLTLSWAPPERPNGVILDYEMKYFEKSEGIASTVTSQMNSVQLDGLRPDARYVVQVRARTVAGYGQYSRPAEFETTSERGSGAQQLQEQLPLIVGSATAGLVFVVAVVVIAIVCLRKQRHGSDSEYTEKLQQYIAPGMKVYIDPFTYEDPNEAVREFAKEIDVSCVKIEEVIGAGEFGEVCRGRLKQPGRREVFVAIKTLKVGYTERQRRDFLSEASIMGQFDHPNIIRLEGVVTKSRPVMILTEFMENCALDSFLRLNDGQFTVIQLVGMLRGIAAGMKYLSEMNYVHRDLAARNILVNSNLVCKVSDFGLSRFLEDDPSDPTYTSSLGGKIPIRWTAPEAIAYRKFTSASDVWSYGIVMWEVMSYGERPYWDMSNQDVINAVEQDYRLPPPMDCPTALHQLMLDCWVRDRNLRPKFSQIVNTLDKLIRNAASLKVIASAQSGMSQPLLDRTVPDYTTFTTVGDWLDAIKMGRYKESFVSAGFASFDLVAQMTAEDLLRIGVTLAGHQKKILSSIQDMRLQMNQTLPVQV

[3] = biological target: Mitogen-activated protein kinase 7 (Homo sapiens, UniProt Q13164)
Mitogen-activated protein kinase 7, sequence (Q13164 whole entry): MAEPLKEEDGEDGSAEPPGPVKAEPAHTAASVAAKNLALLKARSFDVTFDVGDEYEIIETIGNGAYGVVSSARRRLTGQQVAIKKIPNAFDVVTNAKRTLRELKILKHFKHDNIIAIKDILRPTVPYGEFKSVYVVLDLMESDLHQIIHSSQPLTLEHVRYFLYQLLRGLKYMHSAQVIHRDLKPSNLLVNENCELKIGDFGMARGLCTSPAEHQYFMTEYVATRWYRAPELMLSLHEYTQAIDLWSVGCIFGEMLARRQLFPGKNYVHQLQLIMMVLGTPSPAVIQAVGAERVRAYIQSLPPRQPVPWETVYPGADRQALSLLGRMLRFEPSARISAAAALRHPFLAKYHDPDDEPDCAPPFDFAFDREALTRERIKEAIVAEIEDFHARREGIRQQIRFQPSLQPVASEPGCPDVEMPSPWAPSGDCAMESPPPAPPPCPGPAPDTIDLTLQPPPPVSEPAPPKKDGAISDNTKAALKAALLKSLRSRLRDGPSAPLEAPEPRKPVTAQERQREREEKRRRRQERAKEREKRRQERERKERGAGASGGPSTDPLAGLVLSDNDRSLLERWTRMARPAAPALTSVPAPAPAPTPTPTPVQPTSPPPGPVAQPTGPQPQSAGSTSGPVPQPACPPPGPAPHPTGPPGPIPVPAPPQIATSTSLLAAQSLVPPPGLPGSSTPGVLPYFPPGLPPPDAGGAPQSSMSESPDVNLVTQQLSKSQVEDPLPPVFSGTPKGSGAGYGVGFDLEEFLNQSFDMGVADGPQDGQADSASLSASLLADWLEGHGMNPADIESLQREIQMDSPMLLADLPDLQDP

[4] = biological target: Mitogen-activated protein kinase 9 (Homo sapiens, UniProt P45984)
Mitogen-activated protein kinase 9, sequence (P45984 whole entry): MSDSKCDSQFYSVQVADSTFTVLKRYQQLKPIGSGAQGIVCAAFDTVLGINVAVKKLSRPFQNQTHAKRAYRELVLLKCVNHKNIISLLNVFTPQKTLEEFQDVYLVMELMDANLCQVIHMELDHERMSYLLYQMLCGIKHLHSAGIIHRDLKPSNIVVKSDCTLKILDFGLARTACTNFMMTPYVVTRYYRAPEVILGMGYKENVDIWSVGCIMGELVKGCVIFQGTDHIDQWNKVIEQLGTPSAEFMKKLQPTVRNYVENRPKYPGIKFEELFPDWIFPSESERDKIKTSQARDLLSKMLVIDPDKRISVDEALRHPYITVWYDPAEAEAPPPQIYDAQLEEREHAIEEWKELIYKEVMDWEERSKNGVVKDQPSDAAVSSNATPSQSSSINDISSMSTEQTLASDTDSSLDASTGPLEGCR

[5] = biological target: Serine/threonine-protein kinase PAK 2 (Homo sapiens, UniProt Q13177)
Serine/threonine-protein kinase PAK 2, sequence (Q13177 whole entry): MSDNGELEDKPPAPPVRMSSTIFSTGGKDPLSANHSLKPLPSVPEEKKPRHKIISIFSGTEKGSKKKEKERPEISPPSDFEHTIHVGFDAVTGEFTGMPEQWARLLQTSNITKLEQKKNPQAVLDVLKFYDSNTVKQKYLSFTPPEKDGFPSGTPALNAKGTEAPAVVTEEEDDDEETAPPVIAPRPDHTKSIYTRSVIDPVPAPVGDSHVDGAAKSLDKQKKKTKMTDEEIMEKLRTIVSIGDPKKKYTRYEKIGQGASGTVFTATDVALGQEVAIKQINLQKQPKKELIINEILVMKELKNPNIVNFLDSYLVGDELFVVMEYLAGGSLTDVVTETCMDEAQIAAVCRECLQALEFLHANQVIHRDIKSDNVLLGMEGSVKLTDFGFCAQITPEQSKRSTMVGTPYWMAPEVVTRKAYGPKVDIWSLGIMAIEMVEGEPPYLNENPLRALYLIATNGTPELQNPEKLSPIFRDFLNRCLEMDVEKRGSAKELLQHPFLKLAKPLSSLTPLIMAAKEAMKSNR

[6] = biological target: Serine/threonine-protein kinase pim-1 (Homo sapiens, UniProt P11309)
Serine/threonine-protein kinase pim-1, sequence (P11309 whole entry): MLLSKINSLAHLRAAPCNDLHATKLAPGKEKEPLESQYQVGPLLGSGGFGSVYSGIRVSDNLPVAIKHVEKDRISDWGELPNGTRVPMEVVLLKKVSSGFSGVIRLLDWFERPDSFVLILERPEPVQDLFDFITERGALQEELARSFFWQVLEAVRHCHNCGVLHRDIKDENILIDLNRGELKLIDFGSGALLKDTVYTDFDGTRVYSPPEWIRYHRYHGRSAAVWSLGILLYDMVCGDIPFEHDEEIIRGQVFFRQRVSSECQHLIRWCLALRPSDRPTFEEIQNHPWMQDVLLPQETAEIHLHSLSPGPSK

[7] = biological target: T2, Phosphatidylinositol 5-phosphate 4-kinase type-2 gamma (Homo sapiens, UniProt Q8TBX8)
T2 sequence (Q8TBX8 whole entry): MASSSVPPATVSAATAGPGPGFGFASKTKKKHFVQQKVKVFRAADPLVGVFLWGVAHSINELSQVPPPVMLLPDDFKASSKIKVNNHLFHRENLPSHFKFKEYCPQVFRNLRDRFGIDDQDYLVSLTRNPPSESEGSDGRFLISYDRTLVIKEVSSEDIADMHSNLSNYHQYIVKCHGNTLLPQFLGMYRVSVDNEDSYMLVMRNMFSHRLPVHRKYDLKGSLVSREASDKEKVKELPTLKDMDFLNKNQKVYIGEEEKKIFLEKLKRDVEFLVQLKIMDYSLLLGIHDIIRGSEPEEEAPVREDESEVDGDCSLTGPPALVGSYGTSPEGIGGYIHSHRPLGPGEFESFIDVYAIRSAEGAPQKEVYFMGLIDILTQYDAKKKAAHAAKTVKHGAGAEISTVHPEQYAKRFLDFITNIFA

[8] = biological target: cAMP-dependent protein kinase catalytic subunit alpha (Homo sapiens, UniProt P17612)
[9] = biological target: GTP-binding nuclear protein Ran (Homo sapiens, UniProt P62826)
[10] = biological target: T3, Serine/threonine-protein kinase ULK1 (Homo sapiens, UniProt O75385)
T3 sequence (O75385 whole entry): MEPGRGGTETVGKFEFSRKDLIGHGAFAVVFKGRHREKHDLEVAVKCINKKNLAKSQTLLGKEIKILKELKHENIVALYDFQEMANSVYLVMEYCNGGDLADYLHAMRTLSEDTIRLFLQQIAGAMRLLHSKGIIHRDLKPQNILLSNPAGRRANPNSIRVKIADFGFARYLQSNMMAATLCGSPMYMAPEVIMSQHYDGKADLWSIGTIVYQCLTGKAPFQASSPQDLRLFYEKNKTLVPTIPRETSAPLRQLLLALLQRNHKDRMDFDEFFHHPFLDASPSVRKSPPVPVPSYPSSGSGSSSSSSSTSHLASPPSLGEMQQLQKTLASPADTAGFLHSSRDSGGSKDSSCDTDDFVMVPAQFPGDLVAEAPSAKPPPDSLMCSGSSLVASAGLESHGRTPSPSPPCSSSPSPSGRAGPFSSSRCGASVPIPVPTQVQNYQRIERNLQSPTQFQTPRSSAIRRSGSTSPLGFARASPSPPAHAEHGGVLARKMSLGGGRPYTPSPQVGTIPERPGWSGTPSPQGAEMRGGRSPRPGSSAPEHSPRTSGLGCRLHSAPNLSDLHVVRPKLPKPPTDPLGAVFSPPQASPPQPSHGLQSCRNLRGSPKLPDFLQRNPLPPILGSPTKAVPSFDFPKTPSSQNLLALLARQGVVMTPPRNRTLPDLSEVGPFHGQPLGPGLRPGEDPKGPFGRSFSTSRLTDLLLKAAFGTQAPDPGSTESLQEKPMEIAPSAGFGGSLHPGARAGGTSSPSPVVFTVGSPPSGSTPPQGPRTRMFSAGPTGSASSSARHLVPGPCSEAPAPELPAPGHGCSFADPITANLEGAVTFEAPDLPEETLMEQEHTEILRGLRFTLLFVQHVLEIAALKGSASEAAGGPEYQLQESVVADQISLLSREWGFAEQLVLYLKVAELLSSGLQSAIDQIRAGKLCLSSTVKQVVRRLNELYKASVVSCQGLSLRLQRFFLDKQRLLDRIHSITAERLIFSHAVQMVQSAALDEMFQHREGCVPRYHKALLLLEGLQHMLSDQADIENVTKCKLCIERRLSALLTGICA

[11] = biological target: Tyrosine-protein kinase Yes (Homo sapiens, UniProt P07947)
Tyrosine-protein kinase Yes, sequence (P07947 whole entry): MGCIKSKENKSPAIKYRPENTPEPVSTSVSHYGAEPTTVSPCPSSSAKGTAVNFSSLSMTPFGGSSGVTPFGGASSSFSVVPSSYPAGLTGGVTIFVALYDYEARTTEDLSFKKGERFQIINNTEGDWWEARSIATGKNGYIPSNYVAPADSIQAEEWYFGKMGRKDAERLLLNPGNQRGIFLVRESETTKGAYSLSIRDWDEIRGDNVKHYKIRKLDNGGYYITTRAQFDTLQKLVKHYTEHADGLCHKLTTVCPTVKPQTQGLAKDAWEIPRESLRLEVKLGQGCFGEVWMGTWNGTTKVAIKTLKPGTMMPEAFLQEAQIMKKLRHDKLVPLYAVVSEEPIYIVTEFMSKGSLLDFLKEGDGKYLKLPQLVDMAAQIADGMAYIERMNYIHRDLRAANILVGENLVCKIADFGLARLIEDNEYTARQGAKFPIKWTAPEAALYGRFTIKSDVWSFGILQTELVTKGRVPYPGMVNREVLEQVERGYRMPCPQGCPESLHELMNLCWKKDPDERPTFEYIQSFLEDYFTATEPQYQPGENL
Further: in the data inactive means no Kd found up to 30 µM.

Cyclin-dependent kinase 4, sequence (P11802 whole entry): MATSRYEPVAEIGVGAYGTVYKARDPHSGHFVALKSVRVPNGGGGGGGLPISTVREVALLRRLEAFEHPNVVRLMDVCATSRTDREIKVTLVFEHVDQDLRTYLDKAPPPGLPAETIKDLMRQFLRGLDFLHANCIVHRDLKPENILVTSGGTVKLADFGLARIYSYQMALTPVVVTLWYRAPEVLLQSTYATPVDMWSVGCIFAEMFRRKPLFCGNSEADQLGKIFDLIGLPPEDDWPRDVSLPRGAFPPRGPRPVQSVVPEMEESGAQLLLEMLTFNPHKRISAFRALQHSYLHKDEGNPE
Serine/threonine-protein kinase B-raf, sequence (P15056 whole entry): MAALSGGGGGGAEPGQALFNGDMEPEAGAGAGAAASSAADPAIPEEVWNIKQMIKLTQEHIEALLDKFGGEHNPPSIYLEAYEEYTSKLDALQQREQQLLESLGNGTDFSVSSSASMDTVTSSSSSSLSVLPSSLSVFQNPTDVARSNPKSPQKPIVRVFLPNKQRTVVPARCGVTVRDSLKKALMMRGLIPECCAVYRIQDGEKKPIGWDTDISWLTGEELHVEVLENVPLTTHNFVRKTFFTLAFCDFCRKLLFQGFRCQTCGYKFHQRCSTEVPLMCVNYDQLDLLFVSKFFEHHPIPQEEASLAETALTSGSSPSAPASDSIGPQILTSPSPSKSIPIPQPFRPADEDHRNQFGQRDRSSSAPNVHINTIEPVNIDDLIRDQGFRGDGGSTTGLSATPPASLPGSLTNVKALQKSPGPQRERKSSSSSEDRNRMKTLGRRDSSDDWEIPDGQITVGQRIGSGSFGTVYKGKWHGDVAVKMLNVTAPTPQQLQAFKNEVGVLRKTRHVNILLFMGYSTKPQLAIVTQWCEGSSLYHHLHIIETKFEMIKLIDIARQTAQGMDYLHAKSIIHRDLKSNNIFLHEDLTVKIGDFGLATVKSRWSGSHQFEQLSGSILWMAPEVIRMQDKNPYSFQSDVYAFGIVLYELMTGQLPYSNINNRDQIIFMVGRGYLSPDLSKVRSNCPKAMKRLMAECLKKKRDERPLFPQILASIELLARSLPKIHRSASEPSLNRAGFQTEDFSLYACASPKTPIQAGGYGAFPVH

Kd [1] | Kd [2] | Kd (Ephrin type-B receptor 3) | Kd [3] | Kd [4] | Kd [5] | Kd [6] | Kd [7] | Kd [8] | Kd [9] | Kd [10] | Kd [11] | Compound
> 30 µM (inactive) | > 30 µM (inactive) | > 30 µM (inactive) | > 30 µM (inactive) | > 30 µM (inactive) | > 30 µM (inactive) | > 30 µM (inactive) | > 30 µM (inactive) | > 30 µM (inactive) | > 30 µM (inactive) | > 30 µM (inactive) | 4.43 µM (active) | Cc1cc(-c2cc(OC(=O)c3ccccc3)ccc2Cl)cc2nnc(Nc3ccc(OCCN4CCCC4)cc3)nc12 [TG100-801]
> 30 µM (inactive) | > 30 µM (inactive) | > 30 µM (inactive) | > 30 µM (inactive) | > 30 µM (inactive) | > 30 µM (inactive) | > 30 µM (inactive) | > 30 µM (inactive) | > 30 µM (inactive) | > 30 µM (inactive) | > 30 µM (inactive) | > 30 µM (inactive) | CNC(=O)c1cccc(-c2ccc3c(N4CCOC[C@@H]4C)nc(N4CCOC[C@@H]4C)nc3n2)c1 [VISTUSERTIB]

The next lines start with the compound.

Compound | Kd [1] | Kd [2] | Kd (Ephrin type-B receptor 3) | Kd [3] | Kd [4] | Kd [5] | Kd [6] | Kd [7] | Kd [8] | Kd [9] | Kd [10] | Kd [11]
CN1CCN(c2nc(C3=C(c4c[nH]c5ccccc45)C(=O)NC3=O)c3ccccc3n2)CC1 [SOTRASTAURIN] | > 30 µM (inactive) | > 30 µM (inactive) | > 30 µM (inactive) | > 30 µM (inactive) | > 30 µM (inactive) | > 30 µM (inactive) | 8.84 µM | > 30 µM (inactive) | > 30 µM (inactive) | > 30 µM (inactive) | > 30 µM (inactive) | > 30 µM (inactive)
Cn1c(=O)c(F)c(Nc2ccc(I)cc2F)c2c(=O)n(C[C@@H](O)CO)cnc21 [TAK-733] | > 30 µM (inactive) | > 30 µM (inactive) | > 30 µM (inactive) | > 30 µM (inactive) | > 30 µM (inactive) | > 30 µM (inactive) | > 30 µM (inactive) | > 30 µM (inactive) | > 30 µM (inactive) | > 30 µM (inactive) | > 30 µM (inactive) | > 30 µM (inactive)
CNC(=O)c1cc(COc2nnc(Nc3ccc(Cl)cc3)c3ccoc23)ccn1 [TELATINIB] | > 30 µM (inactive) | > 30 µM (inactive) | > 30 µM (inactive) | > 30 µM (inactive) | > 30 µM (inactive) | > 30 µM (inactive) | > 30 µM (inactive) | > 30 µM (inactive) | > 30 µM (inactive) | > 30 µM (inactive) | > 30 µM (inactive) | > 30 µM (inactive)
C[C@@H]1COC(Nc2ccc3ncnc(Nc4ccc(OCc5nccs5)c(Cl)c4)c3c2)=N1 [VARLITINIB] | > 30 µM (inactive) | > 30 µM (inactive) | > 30 µM (inactive) | > 30 µM (inactive) | > 30 µM (inactive) | > 30 µM (inactive) | > 30 µM (inactive) | > 30 µM (inactive) | > 30 µM (inactive) | > 30 µM (inactive) | > 30 µM (inactive) | 0.321 µM (active)
